Consider 20 compounds from patent publication US10683293B2, “Optionally fused heterocyclyl-substituted derivatives of pyrimidine useful for the treatment of inflammatory, metabolic, oncologic and autoimmune diseases” (NUEVOLUTION A/S, priority 2014, dated 2020).

Assay [1] addresses T1, human RORγt (Ligand Binding Domain) (Homo sapiens, UniProt P51449).
T1 construct: purchased Crelux (Planegg, Germany) batch no PC5032-1
T1 sequence (P51449 269-508 limits assumed): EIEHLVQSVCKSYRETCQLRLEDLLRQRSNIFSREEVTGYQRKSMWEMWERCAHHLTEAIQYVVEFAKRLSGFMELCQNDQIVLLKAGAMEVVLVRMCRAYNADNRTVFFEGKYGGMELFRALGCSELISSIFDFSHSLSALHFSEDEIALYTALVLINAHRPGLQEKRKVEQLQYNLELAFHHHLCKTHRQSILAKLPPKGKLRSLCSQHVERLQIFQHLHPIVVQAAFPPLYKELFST
The experiment in a line: Fluorescence Polarization (FP) Assay. The following applies: 100 nM human RORγt LBD, 25 nM TAMRA probe, values are activity range bounds. Summed up: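 Binding to the RORγt ligand-binding domain was followed by FP. Displacement of a TAMRA-tagged RORγt ligand tracer (910 g/mol) was measured, with DMSO-only wells as negative control.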
Background: Fluorescence polarisation rises when a labelled molecule tumbles more slowly, as on binding a larger partner.

Assay [2] deals with T2, ligand binding domain of human RORγ (Homo sapiens, UniProt P51449).
T2 construct: host or cells: HEK293t
T2 sequence (P51449 269-508 limits assumed): T1 sequence (P51449 269-508 limits assumed)
The experiment in a line: RORγ Reporter Assay (Gal4). The conditions noted are these: for inhibition at 1 µM: HEK-293T, read-out: Gal4 activity range @ 1 μM (% inhibition); for Gal4 activity range @ 0.1 μM (% inhibition): RORγ Reporter Assay (Gal4), HEK293t reporter cells, compound at 0.1 μM, values are activity range bounds. It counts as cell-based. Put shortly:
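HEK293t cells expressing Gal4 DBD–human RORγ LBD hybrid with Gal4-UAS firefly luciferase reporter; compounds at final 1,000 nM and 100 nM (0.1% DMSO), triplicate, medium with 10% charcoal-stripped FBS, 24 h at 37 °C. Luminescence read; percent reduction of RORγ activity calculated versus vehicle-only wells.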
For orientation: A reporter such as luciferase makes a cellular process visible.

The mark [3] stands for this setting: 1 μM test compound, HEK293t RORγ reporter cells, 24 hour.

The compound `CC1(c2ccc(CNc3ncnc(N(Cc4ccc(C(F)(F)F)cc4)C4CC4)c3F)cc2)NC(=O)NC1=O` (stereo not shown) [Example A82, 5-[4-[[[6-[cyclopropyl-[[4-(trifluoromethyl)phenyl]methyl]amino]-5-fluoro-pyrimidin-4-yl]amino]methyl]phenyl]-5-methyl-imidazolidine-2,4-dione] came in with an IC50 in assay [1] of less than 1000 nM. In assay [2] (setting [3]), the inhibition at 1 µM was more than 80%. Besides, the “Gal4 activity range @ 0.1 μM (% inhibition)” value in assay [2] was more than 20 % inhibition.
In turn, `N#CCc1ccc(CNc2ncnc(N(Cc3ccc(C(F)(F)F)cc3)C3CC3)c2F)cc1` [Example A14, 2-[4-[[[6-[cyclopropyl-[[4-(trifluoromethyl)phenyl]methyl]amino]-5-fluoro-pyrimidin-4-yl]amino]methyl]phenyl]acetonitrile] yielded an IC50 in assay [1] of less than 500 nM. Moreover, the inhibition at 1 µM in assay [2] (setting [3]) was more than 80%. For the same compound, in assay [2], the “Gal4 activity range @ 0.1 μM (% inhibition)” value is more than 50 % inhibition.
In assay [1], `NC(=O)Cc1ccc(CNc2ncnc(N(C3CC3)C(c3ccc(C(F)(F)F)cc3)C3CCC3)c2F)cc1` (stereo not shown) [Example A17, 2-[4-[[[6-[[cyclobutyl-[4-(trifluoromethyl)phenyl]methyl]-cyclopropyl-amino]-5-fluoro-pyrimidin-4-yl]amino]methyl]phenyl]acetamide] had an IC50 of less than 2000 nM. Also, the inhibition at 1 µM in assay [2] (setting [3]) was more than 50%. Moreover, the “Gal4 activity range @ 0.1 μM (% inhibition)” value in assay [2] is given as more than 20 % inhibition.
For `CN(Cc1cccc(-n2cccn2)c1)c1ncnc(NCC2CCN(S(C)(=O)=O)CC2)c1F` [Example A143, 5-fluoro-N6-methyl-N4-[(1-methylsulfonyl-4-piperidyl)methyl]-N6-[(3-pyrazol-1-ylphenyl)methyl]pyrimidine-4,6-diamine], in assay [1], the IC50 is less than 500 nM. For the same compound, the inhibition at 1 µM in assay [2] (setting [3]) is more than 80%. Moreover, the “Gal4 activity range @ 0.1 μM (% inhibition)” value in assay [2] is listed as more than 20 % inhibition.
For `CN(Cc1ccc(OC(F)(F)F)cc1)c1ncnc(NCc2ccc(CC(N)=O)cc2)c1F` [Example A20, 2-[4-[[[5-fluoro-6-[methyl-[[4-(trifluoromethoxy)phenyl]methyl]amino]pyrimidin-4-yl]amino]methyl]phenyl]acetamide], in that order: less than 2000 nM, more than 50% and more than 20 % inhibition.
Take `CC(c1ccc(C(F)(F)F)cc1)N(c1ncnc(NCc2ccc(CC(N)=O)cc2)c1F)C1CC1` (stereo not shown) [Example A3, 2-[4-[[[6-[cyclopropyl-[1-[4-(trifluoromethyl)phenyl]ethyl]amino]-5-fluoro-pyrimidin-4-yl]amino]methyl]phenyl]acetamide]: the IC50 in assay [1] was less than 500 nM. In assay [2] (setting [3]), the inhibition at 1 µM was more than 80%. Further, the “Gal4 activity range @ 0.1 μM (% inhibition)” value in assay [2] is more than 50 % inhibition.
For `Cc1ccc(CN(C)c2ncnc(NCc3ccc(CC(N)=O)cc3)c2F)c(C)c1` [Example A138, 2-[4-[[[6-[(2,4-dimethylphenyl)methyl-methyl-amino]-5-fluoro-pyrimidin-4-yl]amino]methyl]phenyl]acetamide], in that order: less than 500 nM, more than 20% and more than 0 % inhibition.
Regarding `CN(Cc1ccc(-n2cccn2)cc1)c1ncnc(NCc2ccc(CC(N)=O)cc2)c1F` [Example A52, 2-[4-[[[5-fluoro-6-[methyl-[(4-pyrazol-1-ylphenyl)methyl]amino]pyrimidin-4-yl]amino]methyl]phenyl]acetamide], the IC50 in assay [1] is less than 500 nM. For the same compound, the inhibition at 1 µM in assay [2] (setting [3]) was more than 50%. Further, the “Gal4 activity range @ 0.1 μM (% inhibition)” value in assay [2] is recorded as more than 0 % inhibition.
In assay [1], `CN(c1ncnc(NCc2ccc(CC(N)=O)cc2)c1F)C1(c2ccc(C(F)(F)F)cc2)CC1` [Example A81, 2-[4-[[[5-fluoro-6-[methyl-[1-[4-(trifluoromethyl)phenyl]cyclopropyl]amino]pyrimidin-4-yl]amino]methyl]phenyl]acetamide] displayed an IC50 of less than 500 nM. In addition, in assay [2] (setting [3]), the inhibition at 1 µM was more than 80%. In addition, the “Gal4 activity range @ 0.1 μM (% inhibition)” value in assay [2] is recorded as more than 50 % inhibition.
In the case of `CC(C)c1ccc(CN(c2ncnc(NCc3ccc(CC(N)=O)cc3)c2F)C2CC2)cn1` [Example A97, 2-[4-[[[6-[cyclopropyl-[(6-isopropyl-3-pyridyl)methyl]amino]-5-fluoro-pyrimidin-4-yl]amino]methyl]phenyl]acetamide], the IC50 in assay [1] was less than 500 nM. In addition, the inhibition at 1 µM in assay [2] (setting [3]) is more than 80%. Also, the “Gal4 activity range @ 0.1 μM (% inhibition)” value in assay [2] is reported as more than 50 % inhibition.
In assay [1], `CCCn1nc(C)cc1CN(C)c1ncnc(NCc2ccc(CC(N)=O)cc2)c1F` [Example A124, 2-[4-[[[5-fluoro-6-[methyl-[(5-methyl-2-propyl-pyrazol-3-yl)methyl]amino]pyrimidin-4-yl]amino]methyl]phenyl]acetamide] came in with an IC50 of less than 500 nM. The “Gal4 activity range @ 1 μM (% inhibition)” value in assay [2] (1 μM test compound, HEK293t RORγ reporter cells, 24 hour, 1 µM) is given as more than 20%. Besides, the “Gal4 activity range @ 0.1 μM (% inhibition)” value in assay [2] is more than 0 % inhibition.
On to `CC(c1ccc(C(F)(F)F)cc1)N(c1ncnc(NCC2CCN(S(C)(=O)=O)CC2)c1F)C1CC1` (stereo not shown) [Example A73, N4-cyclopropyl-5-fluoro-N6-[(1-methylsulfonyl-4-piperidyl)methyl]-N4-[1-[4-(trifluoromethyl)phenyl]ethyl] pyrimidine-4,6-diamine], for which the IC50 in assay [1] is less than 500 nM. Further, in assay [2] (setting [3]), the inhibition at 1 µM was more than 80%. In addition, the “Gal4 activity range @ 0.1 μM (% inhibition)” value in assay [2] is on record as more than 80 % inhibition.
`CN(C)CCNC(=O)CC1(CNc2ncnc(N(Cc3ccc(C(F)(F)F)cc3)C3CC3)c2F)CCOCC1` [Example A151, 2-[4-[[[6-[cyclopropyl-[[4-(trifluoromethyl)phenyl]methyl]amino]-5-fluoro-pyrimidin-4-yl]amino]methyl]tetrahydropyran-4-yl]-N-(2-dimethylaminoethyl)acetamide]: the IC50 in assay [1] is less than 1000 nM. In addition, the inhibition at 1 µM in assay [2] (setting [3]) is more than 50%. Besides, the “Gal4 activity range @ 0.1 μM (% inhibition)” value in assay [2] is reported as more than 0 % inhibition.
As to `CCN(CC1COc2ccccc2O1)c1ncnc(NCc2ccc(CC(N)=O)cc2)c1F` (stereo not shown) [Example A145, 2-[4-[[[6-[2,3-dihydro-1,4-benzodioxin-3-ylmethyl(ethyl)amino]-5-fluoro-pyrimidin-4-yl]amino]methyl]phenyl]acetamide], the IC50 in assay [1] was less than 500 nM. The inhibition at 1 µM in assay [2] (setting [3]) is more than 50%. Further, in assay [2], the “Gal4 activity range @ 0.1 μM (% inhibition)” value is more than 0 % inhibition.
`CC(C)n1nc(C2CC2)cc1CN(c1ncnc(NCc2ccc(CC(N)=O)cc2)c1F)C1CC1` [Example A90, 2-[4-[[[6-[cyclopropyl-[(5-cyclopropyl-2-isopropyl-pyrazol-3-yl)methyl]amino]-5-fluoro-pyrimidin-4-yl]amino]methyl]phenyl]acetamide]: in assay [1], the IC50 is less than 500 nM. Also, the inhibition at 1 µM in assay [2] (setting [3]) was more than 0%.
As for `O=C(C1CC1)N1CCC(CNc2ncnc(N(Cc3ccc(C(F)(F)F)cc3)C3CC3)c2F)CC1` [Example A167, cyclopropyl-[4-[[[6-[cyclopropyl-[[4-(trifluoromethyl)phenyl]methyl]amino]-5-fluoro-pyrimidin-4-yl]amino]methyl]-1-piperidyl]methanone], the IC50 in assay [1] was less than 500 nM. Moreover, in assay [2] (setting [3]), the inhibition at 1 µM is more than 80%. For the same compound, the “Gal4 activity range @ 0.1 μM (% inhibition)” value in assay [2] is more than 50 % inhibition.
For `CCCn1nc(C)cc1CN(C)c1ncnc(NCC2CCN(S(C)(=O)=O)CC2)c1F` [Example A148, 5-fluoro-N4-methyl-N4-[(5-methyl-2-propyl-pyrazol-3-yl)methyl]-N6-[(1-methylsulfonyl-4-piperidyl)methyl]pyrimidine-4,6-diamine], in that order: less than 500 nM, more than 20% and more than 0 % inhibition.
In the case of `COc1cccc(CN(c2ncnc(NCc3ccc(CC(N)=O)cc3)c2F)C2CC2)c1` [Example A55, 2-[4-[[[6-[cyclopropyl-[(3-methoxyphenyl)methyl]amino]-5-fluoro-pyrimidin-4-yl]amino]methyl]phenyl]acetamide], the IC50 in assay [1] was less than 500 nM. Also, the inhibition at 1 µM in assay [2] (setting [3]) is more than 0%.
In assay [1], `NC(=O)Cc1ccc(CNc2ncnc(N(Cc3ccc(C(F)(F)F)cc3)C3CC3)c2F)cc1` [Example A2, 2-[4-[[[6-[cyclopropyl-[[4-(trifluoromethyl)phenyl]methyl]amino]-5-fluoro-pyrimidin-4-yl]amino]methyl]phenyl]acetamide] registered an IC50 of less than 500 nM. Besides, the inhibition at 1 µM in assay [2] (setting [3]) was more than 80%. Besides, the “Gal4 activity range @ 0.1 μM (% inhibition)” value in assay [2] is on record as more than 80 % inhibition.
Turning to `O=S1(=O)CCC(O)(CNc2ncnc(N(Cc3ccc(C(F)(F)F)cc3)C3CC3)c2F)CC1` [Example A8, 4-[[[6-[cyclopropyl-[[4-(trifluoromethyl)phenyl]methyl]amino]-5-fluoro-pyrimidin-4-yl]amino]methyl]-1,1-dioxo-thian-4-ol], the IC50 in assay [1] is less than 500 nM. For the same compound, in assay [2] (setting [3]), the inhibition at 1 µM was more than 80%. Moreover, the “Gal4 activity range @ 0.1 μM (% inhibition)” value in assay [2] is recorded as more than 50 % inhibition.

The term IC50 denotes the concentration needed to halve the response being measured. High values mean lower potency, low ones higher potency. For orientation: inhibition means the share of the control response that was lost under treatment.
